This note sets out measurements from patent publication US20240140966A1, “AMORPHOUS AND CRYSTALLINE FORMS OF MCL-1 ANTAGONISTS” (AMGEN INC., priority 2022, published 2024).

The nature of data set [1]: Solid state stability assessment under accelerated conditions. It counts as physicochemical. The settings on record: for XRPD after solid state physical stability assessment: 8 weeks under stress conditions; for chemical and physical stability after 8 weeks: 25° C./60% RH (open), 40° C. (closed), 60° C. (closed), 40° C./75% RH (open). As to the method: Solid state stability assessment of AMG 176 Form 1 was conducted at 25° C./60% RH (open), 40° C. (closed), 60° C. (closed), and 40° C./75% RH (open) accelerated conditions to determine the chemical and physical stability of AMG 176.
Solid state stability assessment of AMG 176 amorphous material and Form 1 was conducted at 25° C./60% RH (open), 40° C. (closed), 60° C. (closed), and 40° C./75% RH (open) accelerated conditions to determine the chemical and physical stability of AMG 176.

The next data set can be described thus: Moisture sorption (DVS). It counts as physicochemical. The settings on record: for hygroscopicity (in words): DVS up to 95% RH; for XRPD of the post-DVS material: after DVS cycle. As to the method: Moisture Sorption: Moisture sorption data was collected at 25° C. using a VTI vapor sorption analyzer. A sample size of approximately 4-10 mg was used in a standard platinum pan. Hygroscopicity was evaluated from 5 to 95% RH in increments of 5% RH. Data for adsorption and desorption cycles were collected. Equilibrium criteria were set at 0.001% weight change in 10 minute with a maximum equilibration time of 180 minutes.

A short description of data set [2]: Dog PK studies, amorphous versus crystalline suspension. It counts as in vivo. The settings on record: AMG 176 dosed as an amorphous suspension as compared to the crystalline suspension. From the text: AMG 176 Form 1 has acceptable pharmaceutical and physical properties, can be scaled to kilogram quantities, and can be compounded during drug product formulating as an in situ sodium salt to achieve desired drug concentrations to enable IV delivery. AMG 176 can also be converted to amorphous material to support oral dosing, if desired, depending on the dosing range. […] While improved exposures were observed by dosing the amorphous material, the exposures would likely plateau if gram level doses are need for oral delivery.

The mark [3] stands for this setting: DVS, 25° C., adsorption 5% to 95% RH.

Structures are written as SMILES. “Also recorded” adds a separate entry of the source.

As for `CO[C@H]1/C=C/C[C@H](C)[C@@H](C)S(=O)(=O)NC(=O)c2ccc3c(c2)N(C[C@@H]2CC[C@H]21)C[C@@]1(CCCc2cc(Cl)ccc21)CO3` [AMG 176 Form 1], the “XRPD after solid state physical stability assessment” value in data set [1] (listed as crystalline Form 1 of AMG 176) is listed as “Form conversion was not observed”. Further, the “chemical and physical stability after 8 weeks” value in data set [1] was “physically and chemically stable”. Also, in the data set “Moisture sorption (DVS)”, the “hygroscopicity (in words)” value is given as “low hygroscopicity; also recorded: non-hygroscopic” and the “XRPD of the post-DVS material” value was “no form change”. Moreover, the “water vapor uptake between 5% and 95% RH” value in the data set “Moisture sorption (DVS)” (setting [3]) amounted to 0.3%.
`CO[C@H]1/C=C/C[C@H](C)[C@@H](C)S(=O)(=O)NC(=O)c2ccc3c(c2)N(C[C@@H]2CC[C@H]21)C[C@@]1(CCCc2cc(Cl)ccc21)CO3` [AMG 176, (1S,3′R,6′R,7′S,8′E,11′S,12′R)-6-chloro-7′-methoxy-11′,12′-dimethyl-3,4-dihydro-2H,15′H-spiro[naphthalene-1,22′-[20]oxa[13]thia[1,14]diazatetracyclo[14.7.2.0^3,6.O^19,24]pentacosa[8,16,18,24]tetraen]-15′-one 13′,13′-dioxide]: the improvement of absorption in data set [2] is reported as 10 ×.
Turning to `CO[C@H]1/C=C/C[C@H](C)[C@@H](C)S(=O)(=O)NC(=O)c2ccc3c(c2)N(C[C@@H]2CC[C@H]21)C[C@@]1(CCCc2cc(Cl)ccc21)CO3` [Amorphous AMG 176], in data set [1], the “XRPD after solid state physical stability assessment” value is given as “Crystallization not observed”; the “chemical and physical stability after 8 weeks” value was “physically and chemically stable”. In addition, in the data set “Moisture sorption (DVS)”, the “hygroscopicity (in words)” value is on record as “limited hygroscopicity” and the “XRPD of the post-DVS material” value was “consistent with amorphous material”. Further, in “Moisture sorption (DVS)” (setting [3]), the “water vapor uptake (weight gain) between 5% and 95% RH” value is given as 0.95 wt %. In addition, in the data set “Moisture sorption (DVS)” (DVS, 25° C., adsorption 5% to 95% RH, listed as amorphous form of AMG 176), the “water vapor uptake (weight gain) between 5% and 95% RH” value was “about 0.95 wt %”. Moreover, in the data set “Moisture sorption (DVS)” (DVS, 95% relative humidity), the “weight gain at 95% RH” value is given as 0.95%. Moreover, in the data set “Moisture sorption (DVS)” (DVS, desorption cycle, likely loss of residual DCM and/or water), the “weight lost upon desorption” value is 1.59%. Further, the “XRPD of the post-DVS material” value in the data set “Moisture sorption (DVS)” (listed as amorphous form of AMG 176) was “consistent with amorphous material”.
